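Results reflect a 48-hour exposure of cells in 96-well plates to compound at five concentrations. GI50 is the concentration that inhibits growth by half. TGI: concentration producing complete growth inhibition.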
How the values were obtained:
Assay in all cases: NCI-60 cell line screen, 48 h
EKVX NSCLC = system: EKVX NSCLC
RPMI-8226 leukemia = system: RPMI-8226 leukemia
SF-539 CNS = system: SF-539 CNS
SK-MEL-2 melanoma = system: SK-MEL-2 melanoma
SNB-75 CNS = system: SNB-75 CNS
DLD-1 colon = system: DLD-1 colon
DMS 114 small cell lung = system: DMS 114 small cell lung
LXFL 529 NSCLC = system: LXFL 529 NSCLC
M19-MEL melanoma = system: M19-MEL melanoma
SNB-78 CNS = system: SNB-78 CNS

SMILES | TGI (EKVX NSCLC) [µM] | TGI (RPMI-8226 leukemia) [µM] | TGI (SF-539 CNS) [µM] | TGI (SK-MEL-2 melanoma) [µM] | TGI (SNB-75 CNS) [µM] | TGI (DLD-1 colon) [µM] | TGI (DMS 114 small cell lung) [µM] | TGI (LXFL 529 NSCLC) [µM] | TGI (M19-MEL melanoma) [µM] | TGI (SNB-78 CNS) [µM] | GI50 (EKVX NSCLC) [µM] | GI50 (RPMI-8226 leukemia) [µM] | GI50 (SF-539 CNS) [µM]
O=[N+]([O-])c1ccc2c(N=Nc3ccc4ccccc4c3O)c(O)cc(S(=O)(=O)O)c2c1 | > 82.1 | 61.5 | > 28.5 | > 100 | > 93.6 |  |  |  |  |  |  |  | 
CCOC(=O)c1cc([N+](=O)[O-])cc([N+](=O)[O-])c1Sc1ncnc2nc[nH]c12 | 13.1 | > 21.8 | 15.7 | 9.43 | 25.1 |  |  |  |  |  |  |  | 
CCSc1[nH]c(NC(=NC(C)C)NC(=O)c2ccccc2)c(C(N)=O)c1C(N)=O | > 10 | > 10 |  |  | > 10 |  |  |  |  |  |  |  | 
O=C1c2c(F)c(F)c(F)c(F)c2SC2=Nc3cccc4cccc(c34)N12 | 26.5 | 8.02 | 14 | 7.89 | 25.5 |  |  |  |  |  |  |  | 
Cc1cc2nc(CC(C(F)(F)F)C(F)(F)F)oc2cc1C | 7.6 | 1.61 | 7.66 | 9.85 | 16.3 |  |  |  |  |  |  |  | 
O=P(Nc1cccc(Cl)c1)(Oc1ccccc1)N(CCCl)CCCl (stereo not given) | 33.9 |  | 31.2 | 25.6 | 30.4 | 30.5 | 26.1 | 24.6 | 32.8 | 43.8 |  |  | 
COc1ccccc1[C@@H]1CCC2CC[C@@H](c3ccccc3OC)[N+]21Cc1ccccc1 (stereo not given in full) | 1.86 | 1.47 |  | 8.86 | 8.65 |  |  |  |  |  |  |  | 
Cc1cc(N)c2cc(NC(=O)Nc3ccc4nc(C)cc(N)c4c3)ccc2n1 | > 100 | > 100 |  | > 100 |  |  |  |  |  |  |  |  | 
COc1ccc2nc3c([N+](=O)[O-])ccc(NCCCN(C)C)c3c(N)c2c1 | 3.68 | 1.84 | 3.36 | 4.78 | 3.47 |  |  |  |  |  |  |  | 
CC(C)(/C=N/O)/[N+]([O-])=C/c1ccccc1 | > 100 | > 100 | > 100 | > 100 | > 100 |  |  |  |  |  |  |  | 
COc1ccc(N2C(=O)C(=O)C3(CCCCC3)C2=O)c(OC)c1OC | > 100 | > 100 | > 100 |  | > 100 |  |  |  |  |  |  |  | 
CC1=C(C(=O)NCCCN(CCO)CCO)CC(C(=O)NCCCN(CCO)CCO)=C(C)N1 | > 100 | > 100 | > 100 | > 100 | 80 |  |  |  |  |  |  |  | 
COC(=O)C1Cc2c([nH]c3ccccc23)-c2[nH]c3ccccc3c2CC(NC(C)=O)C(=O)N2CCCC2C(=O)N1 (stereo not given) | > 100 | > 100 | > 100 | > 100 | > 100 |  |  |  |  |  |  |  | 
O=C1C=CC(=O)[C@H]2C3C=CC(C4C3C3(Cl)C(Cl)=C(Cl)[C@]4(Cl)C3(Cl)Cl)[C@@H]12 (stereo not given in full) | 15 | 23 | 17.9 | 20.3 | 25 |  |  |  |  |  |  |  | 
COc1ccc(Oc2nc3c(N)cc(C(F)(F)F)cc3nc2-c2ccccc2)cc1 | 28.9 | > 100 | > 100 | 25.9 | 40.6 |  |  |  |  |  |  |  | 
CCC1OC2C(CC=C(C)C)=C3OC(C)(O)C(C)(CC)C(=O)C3=C3OC(=O)C=C1C32 (stereo not given) | > 100 | > 100 | 23.1 | 36.1 |  |  |  |  |  |  |  |  | 
COc1c(C)c(C/C=C(\C)CCCCO)c(OC)c2ccccc12 | > 100 | > 100 | > 100 | > 100 | > 100 |  |  |  |  |  |  |  | 

SMILES | TGI (EKVX NSCLC) [µM] | TGI (RPMI-8226 leukemia) [µM] | TGI (SF-539 CNS) [µM] | TGI (SK-MEL-2 melanoma) [µM] | TGI (SNB-75 CNS) [µM] | TGI (DLD-1 colon) [µM] | TGI (DMS 114 small cell lung) [µM] | TGI (LXFL 529 NSCLC) [µM] | TGI (M19-MEL melanoma) [µM] | TGI (SNB-78 CNS) [µM] | GI50 (EKVX NSCLC) [µM] | GI50 (RPMI-8226 leukemia) [µM] | GI50 (SF-539 CNS) [µM]
O=c1cc(NNc2cccc(F)c2)[nH]c(=S)[nH]1 | > 100 | > 100 | > 100 |  |  |  |  |  |  |  |  |  | 
CCOC(=O)[C@@]12NN=N[C@@H]1[C@H]1CO[C@H](c3ccccc3)N1C2=O | 28.8 | 8.71 | 25.3 | 21.7 |  |  |  |  |  |  |  |  | 
Cc1ccc(O)cc1 (tested in a mixture with another compound) | > 100 | > 100 | > 100 | > 100 |  |  |  |  |  |  |  |  | 
CCOC(=O)C(NC(=O)c1ccccc1)(Nc1ccc(S(=O)(=O)Nc2ccc(OC)nn2)cc1)C(F)(F)F (stereo not given) | > 100 | > 100 | > 100 | > 100 | > 100 |  |  |  |  |  |  |  | 
O=C(c1cccnc1)N1N=C(c2ccc3c(c2)OCO3)CC1(O)c1cc(F)c(Cl)cc1Cl (stereo not given) | 64.5 | > 100 | 33.6 | 59.2 | 39.8 |  |  |  |  |  |  |  | 
COc1cccc(/C=N/NC(=O)CN(C)C)c1O | > 100 |  | > 100 |  |  |  |  |  |  |  |  |  | 
CCOC(=O)CCC(C(=O)OCC)n1nnc2ccc(Nc3c(C)[n+]([O-])c4cc(F)c(OCC)cc4[n+]3[O-])cc21 (stereo not given) | > 100 | 54.3 | 64.4 | > 100 | > 100 |  |  |  |  |  |  |  | 
COC(=O)C1CCCN1C(=O)OC(C)(C)C (stereo not given) | > 100 |  |  | > 100 | > 100 |  |  |  |  |  |  |  | 
CN(C)C1(c2cc3ccccc3s2)CCCCC1 | > 100 |  | > 100 | 47.7 | > 100 |  |  |  |  |  |  |  | 
CCOC(=O)C1=C(O)c2ccc(OC)cc2C(=O)C1=O | > 100 | > 100 | > 100 | > 100 | > 100 | > 100 | > 100 |  | 44.4 | > 100 |  |  | 
COC(=O)[C@@H](NC(=O)c1ccc(CNC(=O)/C(C)=C/c2ccccc2)cc1)C(C)C | > 100 | > 100 | > 100 | > 100 | > 100 |  |  |  |  |  |  |  | 
O=C1CCc2ccccc2O1 | > 100 | > 100 |  | > 100 | > 100 |  |  |  |  |  |  |  | 
O=C(NCCCc1cn[nH]c(=O)n1)c1cccc2nc3ccccc3nc12 | > 100 | > 100 | > 100 | > 100 |  |  |  |  |  |  |  |  | 
Clc1ccc(Nc2nnc(CNc3ccc(-c4nnc(Nc5ccc(Cl)cc5)o4)cc3)o2)cc1 | 44.4 | > 100 | 36.3 | 45.8 | 45.1 |  |  |  |  |  |  |  | 
Nc1nc(N)c2nc(CNc3ccc(C(=O)NC(CCNC(=O)c4ccccc4C(=O)O)C(=O)O)cc3)cnc2n1 (stereo not given) | > 100 | > 100 |  | > 100 | > 100 |  |  |  |  |  | 0.0214 | 0.0343 | 0.0574
Cc1sc2nc3n(c(=O)c2c1C)N=C(c1ccccc1)CS3 | > 100 | > 100 | > 100 |  | > 100 |  |  |  |  |  |  |  | 

— PubChem BioAssay (NCI)
